Laboratory results reported in patent US10588929B1, “Method of synthesizing watermelon seed particles” (KING SAUD UNIVERSITY, priority 2019, dated 2020).

How the values were obtained:
Test in all cases: Zone of inhibition, diffusion agar technique
Type in all cases: cell-based
Conditions in all cases: beyond well diameter of 6 mm, 100 μg of nanoparticles
[1] = test system: Aspergillus fumigatus (RCMB 02567)
Experimental: (§1) Watermelon seed nanoparticles synthesized according to Example 1 were tested for antimicrobial activity against gram negative bacteria, gram positive bacteria, and fungi. Zone of inhibition studies were performed, the results of which are summarized in Table 2 (displaying mean zone of inhibition in mm ± standard deviation beyond well diameter of 6 mm). Testing used the diffusion agar technique with 6.0 mm well diameter and administration of 100 μg of the watermelon seed nanoparticles.

[2] = test system: Streptococcus pneumoniae (RCMB 010011)
Experimental: as §1

[3] = test system: Bacillus subtilis (RCMB 010068)
Experimental: as §1

[4] = test system: Escherichia coli (RCMB 010054)
Experimental: as §1

## C[C@@H]1[C@H](O)[C@@H](C)/C=C/C=C/C=C/C=C/C=C/C=C/C=C/[C@H](O[C@@H]2O[C@H](C)[C@@H](O)[C@H](N)[C@@H]2O)C[C@@H]2O[C@](O)(C[C@@H](O)C[C@@H](O)[C@H](O)CC[C@@H](O)C[C@@H](O)CC(=O)O[C@H]1C)C[C@H](O)[C@H]2C(=O)O [Amphotericin B]
[1]
  mean zone of inhibition: 21.7 ± 1.5 mm

## CC1(C)S[C@@H]2[C@H](NC(=O)[C@H](N)c3ccccc3)C(=O)N2[C@H]1C(=O)O [Ampicillin]
[2]
  mean zone of inhibition: 21.0 ± 1.0 mm
[3]
  mean zone of inhibition: 31.3 ± 1.5 mm

## Gentamicin
[4]
  mean zone of inhibition: 20.3 ± 0.58 mm
